Results taken from patent US5091381A, “2H-1,3,4-benzotriazepin-2-ones” (Biomeasure, Inc., priority 1991, dated 1992).
Like-named read-outs stand apart in the source and are kept apart here.

Columns and labels:
[1] = tested on: human colon adenocarcinoma (HT-29); assay: Proliferation assay (growth curves), HT-29; format: cell-based
Protocol: (§1) The rat pancreatic tumor cell line (AR42J) was obtained from the American Type Culture Collection. The human colon adenocarcinoma (HT-29) and mouse melanoma (B16 F10) were obtained from the in-house tumor bank. The HT-29 cell line is used to generate the CX-1 tumor in nude mice. All cell lines were propagated in Dulbecco's modified Eagle's medium (DMEM) supplemented with 10% fetal bovine serum (FBS) and incubated in a humidified atmosphere of 90% air/ 10% CO2 at 37° C. These cell lines were maintained at Biomeasure, Inc. and were free of mycoplasma as judged by the indirect (Hoechst) method and the direct (Agar) method.
(§2) Growth Curves--The AR42J and HT-29 cells were plated at 5×10^4 cells per well and the B16 F10 was plated at 1×10^4 cells per well in 24 well tissue cult ure dishes in 1ml of DMEM supplemented with 10% FBS. […] The tissue culture plates were incubated at 37° C. in a humidified atomsphere of 90% air/10% CO2 for up to 8 days. At various times, single cell suspensions were obtained by washing the wells with DMEM, adding 0.5 ml of 0.05% trypsin--0.53 mM EDTA, incubating at 37° C. for 5 min., triturating, and adding 0.5ml of DMEM supplemented with 10% FBS to inhibit the trypsin. The total content of each well was added to Isoton and counted using a Coulter Counter model ZF attached to a Channelizer model 256 to ensure that a uniform single cell population was obtained.

[2] = tested on: rat pancreatic tumor cell line (AR42J); assay: Proliferation assay (growth curves), AR42J; format: cell-based; conditions: single application
Protocol: as §1, §2

[3] = biological target: T1, peripheral BZD receptor (Rattus norvegicus, UniProt P16257); assay: Receptor binding assay, peripheral BZD ([3H]RO5-4864 displacement, rat forebrain membranes); conditions: read-out: BENZODIAZEPINE RECEPTOR BINDING, PERIPHERAL BZD
T1 construct: Crude membranes were prepared by homogenization of a rat forebrain sample; from tissue; host or cells: rat forebrain crude membranes
Protocol: (§3) Crude membranes were prepared by homogenization of a rat forebrain sample in 20 ml of ice-cold 50 mM phosphate buffer (81 mM Na^+, 9 mMK^+) buffer with a Brinkman Polytron (setting 6, 15 sec). Buffer was added to obtain a final volume of 40 ml, and the homogenate was centrifuged in a Sorval SS-34 rotor at 39,000 g for 10 min at 0°-4° C. The resulting supernatant was decanted and discarded. The pellet was rehomogenized in ice-cold buffer, diluted, and centrifuged as before. The final pellet was resuspended in the assay buffer and held on ice for the receptor binding assay.
For the receptor binding assay, aliquots of the membrane preparation were incubated for 90 min at 4° C. in 50 mM phosphate buffer containing 0.5 nM [^3 H]RO-4864 and various concentrations of the unlabeled test compounds. The assay was terminated by rapid filtration through Whatman GF/B filters under vacuum. The filters were washed three times with 5-ml aliquots of ice-cold buffer, and the bound radioactivity trapped on the filters was counted by liquid scintillation spectrometry.
(§4) The inhibition constants (Ki) were calculated from the equation Ki=IC50/(I+L/Kd), where L is the radioligand concentration and Kd is the equilibrium dissociation constant for the radioligand. The IC50 was derived from the inhibition data by linear least squares regression of log (B/Bt-B) versus log I, where I is the test compound concentration, Bt is the total amount of radioligand specifically bound, and B is the amount of specific binding in the presence of a given concentration of the unlabeled test compound. The IC50 is the antilog of log I, when the expression log (B/Bt-B) equals zero.

[4] = tested on: mouse melanoma (B16 F10); assay: Proliferation assay (growth curves), B16 F10; format: cell-based; conditions: 100 nM, single application
Protocol: as §1, §2

[5] = biological target: neural BZD (central BZD receptor); assay: Benzodiazepine receptor binding, neural (central) BZD; design: species or system rat
Protocol: as §3, §4

[6] = read-out: BENZODIAZEPINE RECEPTOR BINDING, NEURAL BZD

For `CN1C(=O)N(C(=O)c2ccc(F)cc2)N=C(c2ccccc2)c2ccccc21` [BIM-18154], the inhibition of growth ([1]; HT-29, day 4, single application) was ~35%, the “inhibiting the growth of HT-29 cells” value ([1]; single application) was “active” and the “inhibition of the growth of AR42J cells” value [2] was “did not inhibit”. The Ki [3] was 0.68 nM and the “inhibiting the growth of B16 F10 cells” value [4] was “marginally active”.

In the case of `CN1C(=O)N(C(=O)c2ccc(Cl)c(Cl)c2)N=C(c2ccccc2)c2ccccc21` [BIM-18156], the Ki [3] is reported as 1.68 nM.

Work on `CN1C(=O)N(Cc2ccc(F)cc2)N=C(c2ccccc2)c2ccccc21` [BIM-18268] yielded a Ki [3] of 12 nM.

Compound `CN1C(=O)N(Cc2ccc(Cl)c(Cl)c2)N=C(c2ccccc2)c2ccccc21` [BIM-18269] has a Ki [3] of 53 nM.

Compound `CN1C(=O)N(C(=O)c2ccc(F)c(F)c2)N=C(c2ccccc2)c2ccccc21` [BIM-18272] has a Ki [3] of 3.1 nM.

For `O=C1CN=C(c2ccccc2Cl)c2cc([N+](=O)[O-])ccc2N1` [CLONAZEPAM, clonazepam, reference compound], the Ki [5, 6] was 0.55 nM and the Ki [3] was 10000 nM.

`CN1C(=O)CN=C(c2ccccc2)c2cc(Cl)ccc21` [DIAZEPAM, diazepam] gave a Ki ([5]; read-out: BENZ[…] BINDING, NEURAL BZD) of 8.4 nM.

In the case of `CN1C(=O)CN=C(c2ccc(Cl)cc2)c2cc(Cl)ccc21` [RO5-4864], the Ki [5, 6] is reported as 7210 nM.
